{
  "source": "patent US20220387457A1",
  "about": "(Qlaris Bio, Inc., priority 2020, published 2022)",
  "test": "Toxicokinetics after escalating intravenous doses of CKLP1 in beagles",
  "format": "in vivo, beagle dog",
  "parameters": "AUCTlast/Dose: unit not given here",
  "conditions": "for AUC(0-t) / Cmax / RAUC / AUC(0-inf) / C0 / Tlast / Tmax / Vd / clearance / half-life / λZ range: dog, in vivo",
  "procedure": "Two beagles (one male and one female) were intravenously injected with escalating doses of CKPL1 (0.05 mg/kg, 0.5 mg/kg, 1.5 mg/kg, 3 mg/kg, and 5 mg/kg) to assess the toxicity of CKLP1. The injection was done through the cephalic vein and CKLP1 was administered in a phosphate buffered saline solution ((0.096% sodium phosphate dibasic, 0.089% sodium dihydrogen orthophosphate monohydrate, 0.83% sodium chloride) pH 6.5±0.1 in sterile water for injection USP). The dosing schedule is shown below in Table 3.\nThe following parameters and endpoints were evaluated: mortality, clinical observations, body and organ weights, and food consumption. Bioanalytical samples for toxicokinetic parameters (for both CKLP1 and leveromakalim) were collected after each dose level (days 1, 3, 8, 10, and 14) at predose, 1, 3, 6, 8, and 24 hours postdose. Animals were released from the study after completion of the bioanalytical sample collection schedule.\nToxicokinetics (TK) were determined based on the individual exposures for each animal on each sampled study day (days 1, 3, 8, 10, and 14). […] Predose samples had no quantifiable exposure in any animal on any day, with the exception of the female dog on day 10. The predose concentration for the female dog on day 10 was excluded from the TK analysis in order to allow for estimation of the IV C0.",
  "key": {"[1]": {"conditions": "female dog, IV CKLP1 0.05 mg/kg, study day 1"}, "[2]": {"conditions": "female dog, IV CKLP1 0.5 mg/kg, study day 3"}, "[3]": {"conditions": "female dog, IV CKLP1 1.5 mg/kg, study day 8"}, "[4]": {"conditions": "female dog, IV CKLP1 3 mg/kg, study day 10"}, "[5]": {"conditions": "female dog, IV CKLP1 5 mg/kg, study day 14"}, "[6]": {"conditions": "male dog, IV CKLP1 0.05 mg/kg, study day 1"}, "[7]": {"conditions": "male dog, IV CKLP1 0.5 mg/kg, study day 3"}, "[8]": {"conditions": "male dog, IV CKLP1 1.5 mg/kg, study day 8"}, "[9]": {"conditions": "male dog, IV CKLP1 3 mg/kg, study day 10"}, "[10]": {"conditions": "male dog, IV CKLP1 5 mg/kg, study day 14"}},
  "note": "Read-outs that look alike come from different tables or passages of the source.",
  "data": [
    {"smiles": "CC1(C)Oc2ccc(C#N)cc2[C@@H](N2CCCC2=O)[C@@H]1OP(=O)(O)O", "note": "[CKLP1]", "values": [
      {"measurement": "gender differences in AUC values following each dose", "setting": "IV CKLP1", "value": "less than 2 fold"},
      {"measurement": "AUC(0-t)", "setting": "both sexes, beagle, CKLP1, IV 3 mg/kg, read-out: AUCTlast at MTD, sex-combined", "value": 107000, "unit": "ng·h/mL"},
      {"measurement": "Cmax", "setting": "both sexes, beagle, CKLP1, IV 3 mg/kg, read-out: Cmax at MTD, sex-combined", "value": 16.4, "unit": "µg/mL"},
      {"measurement": "RAUC", "setting": "iv, 0.05 mg/kg", "value": "LOO"},
      {"measurement": "plasma concentrations of CKLP1 relative to levcromakalim", "setting": "early time points after IV CKLP1", "value": "more than 300 fold"},
      {"measurement": "AUCTlast/Dose", "setting": "[1]", "value": 41900},
      {"measurement": "Cmax/Dose", "setting": "[1]", "value": "7.12e+06", "unit": "µg/mL"},
      {"measurement": "AUCTlast/Dose", "setting": "[2]", "value": 41900},
      {"measurement": "Cmax/Dose", "setting": "[2]", "value": "5.98e+06", "unit": "µg/mL"},
      {"measurement": "AUCTlast/Dose", "setting": "[3]", "value": 40800},
      {"measurement": "Cmax/Dose", "setting": "[3]", "value": "6.03e+06", "unit": "µg/mL"},
      {"measurement": "AUCTlast/Dose", "setting": "[4]", "value": 42800},
      {"measurement": "Cmax/Dose", "setting": "[4]", "value": "6.13e+06", "unit": "µg/mL"},
      {"measurement": "AUCTlast/Dose", "setting": "[5]", "value": 62300},
      {"measurement": "Cmax/Dose", "setting": "[5]", "value": "5.86e+06", "unit": "µg/mL"},
      {"measurement": "AUC(0-inf)", "setting": "female, beagle, iv, 0.05 mg/kg", "value": 2110, "unit": "ng·h/mL"},
      {"measurement": "AUC(0-t)", "setting": "female, beagle, iv, 0.05 mg/kg", "value": 2100, "unit": "ng·h/mL"},
      {"measurement": "C0", "setting": "female, beagle, iv, 0.05 mg/kg", "value": 0.461, "unit": "µg/mL"},
      {"measurement": "Cmax", "setting": "female, beagle, iv, 0.05 mg/kg", "value": 0.356, "unit": "µg/mL"},
      {"measurement": "RAUC", "setting": "female, beagle, iv, 0.05 mg/kg", "value": 1.00},
      {"measurement": "Tlast", "setting": "female, beagle, iv, 0.05 mg/kg", "value": 24.0, "unit": "h"},
      {"measurement": "Tmax", "setting": "female, beagle, iv, 0.05 mg/kg", "value": 1, "unit": "h"},
      {"measurement": "Vd", "setting": "female, beagle, iv, 0.05 mg/kg", "value": 0.112, "unit": "L/kg"},
      {"measurement": "clearance", "setting": "female, beagle, iv, 0.05 mg/kg", "value": 0.395, "unit": "mL/min/kg"},
      {"measurement": "half-life", "setting": "female, beagle, iv, 0.05 mg/kg", "value": 3.26, "unit": "h"},
      {"measurement": "λZ range", "setting": "female, beagle, iv, 0.05 mg/kg", "value": "6 to 24", "unit": "h"},
      {"measurement": "AUC(0-inf)", "setting": "female, beagle, iv, 0.5 mg/kg", "value": 21200, "unit": "ng·h/mL"},
      {"measurement": "AUC(0-t)", "setting": "female, beagle, iv, 0.5 mg/kg", "value": 20900, "unit": "ng·h/mL"},
      {"measurement": "C0", "setting": "female, beagle, iv, 0.5 mg/kg", "value": 3.67, "unit": "µg/mL"},
      {"measurement": "Cmax", "setting": "female, beagle, iv, 0.5 mg/kg", "value": 2.99, "unit": "µg/mL"},
      {"measurement": "RAUC", "setting": "female, beagle, iv, 0.5 mg/kg", "value": 10.0},
      {"measurement": "Tlast", "setting": "female, beagle, iv, 0.5 mg/kg", "value": 24.0, "unit": "h"},
      {"measurement": "Tmax", "setting": "female, beagle, iv, 0.5 mg/kg", "value": 1, "unit": "h"},
      {"measurement": "Vd", "setting": "female, beagle, iv, 0.5 mg/kg", "value": 0.139, "unit": "L/kg"},
      {"measurement": "clearance", "setting": "female, beagle, iv, 0.5 mg/kg", "value": 0.392, "unit": "mL/min/kg"},
      {"measurement": "half-life", "setting": "female, beagle, iv, 0.5 mg/kg", "value": 4.11, "unit": "h"},
      {"measurement": "λZ range", "setting": "female, beagle, iv, 0.5 mg/kg", "value": "6 to 24", "unit": "h"},
      {"measurement": "AUC(0-inf)", "setting": "female, beagle, iv, 1.5 mg/kg", "value": 62500, "unit": "ng·h/mL"},
      {"measurement": "AUC(0-t)", "setting": "female, beagle, iv, 1.5 mg/kg", "value": 61200, "unit": "ng·h/mL"},
      {"measurement": "C0", "setting": "female, beagle, iv, 1.5 mg/kg", "value": 11, "unit": "µg/mL"},
      {"measurement": "Cmax", "setting": "female, beagle, iv, 1.5 mg/kg", "value": 9.05, "unit": "µg/mL"},
      {"measurement": "RAUC", "setting": "female, beagle, iv, 1.5 mg/kg", "value": 29.1},
      {"measurement": "Tlast", "setting": "female, beagle, iv, 1.5 mg/kg", "value": 24.0, "unit": "h"},
      {"measurement": "Tmax", "setting": "female, beagle, iv, 1.5 mg/kg", "value": 1, "unit": "h"},
      {"measurement": "Vd", "setting": "female, beagle, iv, 1.5 mg/kg", "value": 0.162, "unit": "L/kg"},
      {"measurement": "clearance", "setting": "female, beagle, iv, 1.5 mg/kg", "value": 0.4, "unit": "mL/min/kg"},
      {"measurement": "half-life", "setting": "female, beagle, iv, 1.5 mg/kg", "value": 4.68, "unit": "h"},
      {"measurement": "λZ range", "setting": "female, beagle, iv, 1.5 mg/kg", "value": "6 to 24", "unit": "h"},
      {"measurement": "AUC(0-inf)", "setting": "female, beagle, iv, 3 mg/kg", "value": 129000, "unit": "ng·h/mL"},
      {"measurement": "AUC(0-t)", "setting": "female, beagle, iv, 3 mg/kg", "value": 128000, "unit": "ng·h/mL"},
      {"measurement": "C0", "setting": "female, beagle, iv, 3 mg/kg", "value": 22.7, "unit": "µg/mL"},
      {"measurement": "Cmax", "setting": "female, beagle, iv, 3 mg/kg", "value": 18.4, "unit": "µg/mL"},
      {"measurement": "RAUC", "setting": "female, beagle, iv, 3 mg/kg", "value": 61.0},
      {"measurement": "Tlast", "setting": "female, beagle, iv, 3 mg/kg", "value": 24.0, "unit": "h"},
      {"measurement": "Tmax", "setting": "female, beagle, iv, 3 mg/kg", "value": 1, "unit": "h"},
      {"measurement": "Vd", "setting": "female, beagle, iv, 3 mg/kg", "value": 0.099, "unit": "L/kg"},
      {"measurement": "clearance", "setting": "female, beagle, iv, 3 mg/kg", "value": 0.388, "unit": "mL/min/kg"},
      {"measurement": "half-life", "setting": "female, beagle, iv, 3 mg/kg", "value": 2.94, "unit": "h"},
      {"measurement": "λZ range", "setting": "female, beagle, iv, 3 mg/kg", "value": "6 to 24", "unit": "h"},
      {"measurement": "AUC(0-inf)", "setting": "female, beagle, iv, 5 mg/kg", "value": 330000, "unit": "ng·h/mL"},
      {"measurement": "AUC(0-t)", "setting": "female, beagle, iv, 5 mg/kg", "value": 311000, "unit": "ng·h/mL"},
      {"measurement": "C0", "setting": "female, beagle, iv, 5 mg/kg", "value": 32.2, "unit": "µg/mL"},
      {"measurement": "Cmax", "setting": "female, beagle, iv, 5 mg/kg", "value": 29.3, "unit": "µg/mL"},
      {"measurement": "RAUC", "setting": "female, beagle, iv, 5 mg/kg", "value": 148},
      {"measurement": "Tlast", "setting": "female, beagle, iv, 5 mg/kg", "value": 24.0, "unit": "h"},
      {"measurement": "Tmax", "setting": "female, beagle, iv, 5 mg/kg", "value": 1, "unit": "h"},
      {"measurement": "Vd", "setting": "female, beagle, iv, 5 mg/kg", "value": 0.131, "unit": "L/kg"},
      {"measurement": "clearance", "setting": "female, beagle, iv, 5 mg/kg", "value": 0.253, "unit": "mL/min/kg"},
      {"measurement": "half-life", "setting": "female, beagle, iv, 5 mg/kg", "value": 5.98, "unit": "h"},
      {"measurement": "λZ range", "setting": "female, beagle, iv, 5 mg/kg", "value": "3 to 24", "unit": "h"},
      {"measurement": "AUCTlast/Dose", "setting": "[6]", "value": 22400},
      {"measurement": "Cmax/Dose", "setting": "[6]", "value": "4.9e+06", "unit": "µg/mL"},
      {"measurement": "AUCTlast/Dose", "setting": "[7]", "value": 28500},
      {"measurement": "Cmax/Dose", "setting": "[7]", "value": "5.2e+06", "unit": "µg/mL"},
      {"measurement": "AUCTlast/Dose", "setting": "[8]", "value": 28800},
      {"measurement": "Cmax/Dose", "setting": "[8]", "value": "5.13e+06", "unit": "µg/mL"},
      {"measurement": "AUCTlast/Dose", "setting": "[9]", "value": 28400},
      {"measurement": "Cmax/Dose", "setting": "[9]", "value": "4.8e+06", "unit": "µg/mL"},
      {"measurement": "AUCTlast/Dose", "setting": "[10]", "value": 31700},
      {"measurement": "Cmax/Dose", "setting": "[10]", "value": "4.48e+06", "unit": "µg/mL"}
    ]}
  ]
}
